According to patent publication US3947411A, “Novel 1-aryl-2-arylalkyl-3-or-4-[4'-(substituted-alkyl)piperazino-1']butanols- 2-or-butenes-1, and methods of manufacture thereof” (Warner-Lambert Company, priority 1972, dated 1976):
In brackets after ≈: the same amount, converted by molar mass.

Experiments:
Staphylococcus aureus = assay: Agar well inhibition zone test against bacteria, Staphylococcus aureus (Table III); details: quantity per well giving inhibition zone (500, 50, 5 μg tested); nutrient agar, 37°, 24 hours
Procedure: The efficacy of the compounds against bacteria was tested as follows:
The test organisms, in this case Staphylococcus aureus and Escherichia coli, were inoculated on nutrient agar as described in Example 12, wells were punched, and the solutions of the compounds were transferred to fill the wells. The quantity of compound in the wells amounted again to 500 μg, 50 μg and 5 μg.
After incubation a 37° for 24 hours the quantity of compound was determined at which an inhibition of the organism's growth, in the form of an inhibition zone around the corresponding well, occurred.

A. niger [1] = assay: Minimum inhibitory concentration for fungi, tube dilution, A. niger (Table IV); details: Aspergillus niger, 48 h, read-out: Minimum Inhibitory Concentration, A. niger
Procedure: (§1) A tube dilution series of the respective compound in Sabouraud nutrient broth, whose individual tubes contained concentrations of 1024 μg, 512 μg, 256 μg, 128 μg, 64 μg, 32 μg, 16 μg, 8 μg, 4 μg, 2 μg, 1.1 μg and 0.5 μg/ml, was prepared and inoculated with a photometrically standardized suspension of the test organisms or the spores thereof.

Aspergillus niger = assay: Agar well inhibition zone test against fungi, Aspergillus niger (Table II); details: quantity per well giving inhibition zone (500, 50, 5 μg tested); Sabouraud agar, 28°, 48 hours
C. albicans [2] = assay: Minimum inhibitory concentration for fungi, tube dilution, C. albicans (Table IV); details: Candida albicans, 48 h, read-out: Minimum Inhibitory Concentration, C. albicans
Procedure: as §1

Solubility in water = format: physicochemical; details: hydrochlorides or oxalates, read-out: solubilities (in water)
Procedure: The following list contains examples of those compounds which are made according to the methods disclosed. (The individual compounds are identified by elementary analyses and infrared spectra, by ultra-violet or nuclear resonance spectra, if necessary.) Individual melting points and solubilities (in water) are also given as is the method by which each compound is prepared.
The melting points and solubilities are given for the Hydrochlorides I - XVI; XVIII - XXVII; XXIX - XXXV; XXXVII - XLII; XLIV - LXII; LXIV - LXVII, and the Oxalates XVII; […]; XXXVI; LXIII.

Candida albicans = assay: Agar well inhibition zone test against fungi, Candida albicans (Table II); details: quantity per well giving inhibition zone (500, 50, 5 μg tested); Sabouraud agar, 28°, 48 hours
Procedure: The efficacy of the compounds against fungi was tested as follows:
The test organisms, in this case the blastomycete Candida albicans and the mold Aspergillus niger, were inoculated onto Sabouraud agar plates by pouring a photometrically adjusted standard suspension of organisms on the plate. After inoculation, wells with a diameter of 5.0 mm were punched in the agar, and filled with 50 ul of the compound solution mentioned before. The quantity of compound applied thus amounted to 500 μg, 50 μg and 5 μg. After incubation at 28° for 48 hours, the quantity of compound was determined at which an inhibition of the organism's growth, in form of an inhibition zone around the corresponding well, was present.

Escherichia coli = assay: Agar well inhibition zone test against bacteria, Escherichia coli (Table III); details: quantity per well giving inhibition zone (500, 50, 5 μg tested); nutrient agar, 37°, 24 hours
[3] = tested on: Mycobacterium tuberculosis II 37 RV (typus humanus); assay: Efficacy against Mycobacteria, Tb-broth dilution series (Table I); format: cell-based; details: 504 h, Dubos Tb-broth + 10% bovine serum, 21 days, read-out: Minimum Inhibitory Concentration
Staph. aureus = assay: Minimum inhibitory concentration for bacteria, tube dilution, Staph. aureus (Table V); details: Staphylococcus aureus, 48 h, read-out: Minimum Inhibitory Concentration, Staph. aureus
Procedure: A tube dilution series of the respective compound in nutrient broth whose individual tubes contained concentrations of 1024 μg, 512 μg, 256 μg, 128 μg, 64 μg, 32 μg, 1 μg, 8 μg, 4 μg, 2 μg, 1.1 μg and 0.5 μg/ml was prepared and inoculated with a photometrically standardized suspension of the test organisms.

C. albicans [4] = assay: Minimum inhibitory concentration for fungi in presence of serum, C. albicans (Table VI); format: cell-based; details: Candida albicans; Sabouraud nutrient broth + 10% bovine serum, 28°C, 48 hours
A. niger [5] = assay: Minimum inhibitory concentration for fungi in presence of serum, A. niger (Table VI); format: cell-based; details: Aspergillus niger; Sabouraud nutrient broth + 10% bovine serum, 28°C, 48 hours

| SMILES | Inhibition Area at μg, Staph. aureus (Staphylococcus aureus) [µg] | MIC (A. niger [1]) [µg/mL] | Inhibition Area at μg, Asp. niger (Aspergillus niger) [µg] | MIC (C. albicans [2]) [µg/mL] | solubility (Solubility in water) [mg/mL] | Inhibition Area at μg, Cand. albicans (Candida albicans) [µg] | Inhibition Area at μg, E. coli (Escherichia coli) [µg] | MIC [3] [µg/mL] | MIC (Staph. aureus) [µg/mL] | MIC (C. albicans [4]) [µg/mL] | MIC (A. niger [5]) [µg/mL] |
| --- | --- | --- | --- | --- | --- | --- | --- | --- | --- | --- | --- |
| CC1CCCCN1CCN1CCN(C(C)C(=Cc2ccccc2)Cc2ccccc2)CC1 (stereo not drawn) [XXXIII, 1-phenyl-2-benzyl-3-[4'-(β-2"-methyl-piperidinoethyl)-piperazino-1']-butene-1] | 50 | 256 (≈ 593 µM) | 50 | 256 (≈ 593 µM) | 100 (≈ 232000 µM) | 5 | 500 | 20 | 128 (≈ 297 µM) |  |  |
| CC1CCN(CCN2CCN(C(C)C(O)(Cc3ccccc3)Cc3ccccc3)CC2)CC1 (stereo not drawn) [IX, 1-phenyl-2-benzyl-3-{4'-[β-(4"-methyl-piperidino)-ethyl]-piperazino-1'}-butanol-2] | 500 | 128 (≈ 285 µM) | 50 | 16 (≈ 35.6 µM) | 50 (≈ 111000 µM) | 50 | 500 | 100 |  | 32 |  |
| CC(N1CCN(Cc2cccnc2)CC1)C(O)(Cc1ccccc1)Cc1ccccc1 (stereo not drawn) [XXIII, 1-phenyl-2-benzyl-3-[4'-(3"-pyridylmethyl)-piperazino-1']-butanol-2] | 500 |  | > 500 |  | 50 (≈ 120000 µM) | 500 | > 500 | 1000 |  |  |  |
| CC1CCCN(CCN2CCN(C(C)C(O)(Cc3ccccc3)Cc3ccccc3)CC2)C1 (stereo not drawn) [VIII, 1-phenyl-2-benzyl-3-{4'-[β-(3"-methyl-piperidino)-ethyl]-piperazino-1'}butanol-2] | 50 |  | 500 | 16 (≈ 35.6 µM) | 50 (≈ 111000 µM) | 50 | > 500 | 100 | 512 (≈ 1140 µM) | 16 |  |
| CC(N1CCN(CCN2CCCC2)CC1)C(O)(Cc1ccccc1)Cc1ccccc1 (stereo not drawn) [III, 1-phenyl-2-benzyl-3-[4'-(β-pyrrolidino-ethyl)-piperazino-1']-butanol-2] | 50 | 64 (≈ 152 µM) | 50 | 32 (≈ 75.9 µM) | 50 (≈ 119000 µM) | 50 | 500 | 50 | 512 (≈ 1210 µM) | 64 | 128 |
| CC1CN(CCN2CCN(C(C)C(=Cc3ccccc3)Cc3ccccc3)CC2)CCO1 (stereo not drawn) [XXXII, 1-phenyl-2-benzyl-3-{4'-[β-(2-methylmorpholino)-ethyl]-piperazino-1'}-butene-1] | 50 | 128 (≈ 295 µM) | 50 |  | 100 (≈ 231000 µM) | 500 | > 500 | 50 | 128 (≈ 295 µM) |  |  |
| CC1CN(CCN2CCN(C(C)C(O)(Cc3ccccc3)Cc3ccccc3)CC2)CCO1 (stereo not drawn) [VI, 1-phenyl-2-benzyl-3-{4'-[β-(2"-methyl-morpholino)-ethyl]-piperazino-1'}-butanol-2] | > 500 |  | 500 |  | 100 (≈ 221000 µM) | 500 | > 500 | 100 |  |  |  |
| CC(N1CCN(CCN2CCN(Cc3ccccc3)CC2)CC1)C(O)(Cc1ccccc1)Cc1ccccc1 (stereo not drawn) [XII, 1-phenyl-2-benzyl-3-{4'-[β-(4"-benzyl-piperazino-1")-ethyl]-piperazino-1'}-butanol-2] | 50 | 16 (≈ 30.4 µM) | 50 | 64 (≈ 121 µM) | 100 (≈ 190000 µM) | 5 | 500 | 100 | 64 (≈ 121 µM) | 256 | > 1020 |
| CC(N1CCN(CCN2CCCCC2)CC1)C(O)(Cc1ccccc1)Cc1ccccc1 (stereo not drawn) [IV, 1-phenyl-2-benzyl-3-[4'-(β-piperidino-ethyl)-piperazino-1']-butanol-2] | 500 |  | 500 | 32 (≈ 73.5 µM) | 50 (≈ 115000 µM) | 50 | > 500 | 100 |  | 32 |  |
| CC(N1CCN(CCN2CCOCC2)CC1)C(O)(Cc1ccccc1)Cc1ccccc1 (stereo not drawn) [V, 1-phenyl-2-benzyl-3-[4'-(β-morpholino-ethyl)-piperazino-1']-butanol-2] | 50 | 64 (≈ 146 µM) | 50 | > 1020 | 50 (≈ 114000 µM) | 50 | 500 | 100 | 512 (≈ 1170 µM) |  | 256 |
| CC(N1CCN(Cc2ccccn2)CC1)C(O)(Cc1ccccc1)Cc1ccccc1 (stereo not drawn) [XXII, 1-phenyl-2-benzyl-3-[4'-(2"-pyridylmethyl)-piperazino-1']-butanol-2] | 50 |  | 500 |  | 50 (≈ 120000 µM) | 500 | > 500 | 500 | > 1020 | 512 |  |
| CCN(CC)CCN1CCN(C(C)C(=Cc2ccccc2)Cc2ccccc2)CC1 (stereo not drawn) [XXVII, 1-phenyl-2-benzyl-3-[4'-(β-diethylamino-ethyl)-piperazino-1']-butene-1] | 50 | 128 (≈ 316 µM) | 5 | 256 (≈ 631 µM) | 100 (≈ 247000 µM) | 5 | 500 | 10 | 256 (≈ 631 µM) |  |  |
| CC1CCCCN1CCN1CCN(C(C)C(O)(Cc2ccccc2)Cc2ccccc2)CC1 (stereo not drawn) [VII, 1-phenyl-2-benzyl-3-{4'-[β-(2"-methyl-piperidino)-ethyl]-piperazino-1'}-butanol-2] | 500 |  | 500 | 32 (≈ 71.2 µM) | 50 (≈ 111000 µM) | 50 | > 500 | 10 |  | 32 |  |
| CC(N1CCN(CCN2CCN(CCc3ccccc3)CC2)CC1)C(O)(Cc1ccccc1)Cc1ccccc1 (stereo not drawn) [XIV, 1-phenyl-2-benzyl-3-{4'-[β-(4"-β-phenethyl-piperazino-1")-ethyl]-piperazino-1'}-butanol-2] | 50 | 16 (≈ 29.6 µM) | 50 | 32 (≈ 59.2 µM) | 100 (≈ 185000 µM) | 50 | 500 |  | 32 (≈ 59.2 µM) | 128 | 64 |
| CC(N1CCNCC1)C(O)(Cc1ccccc1)Cc1ccccc1 (stereo not drawn) [L, 1-phenyl-2-benzyl-3-piperazino-butanol-2] | 500 |  | 50 |  | 10 (≈ 30800 µM) | 50 | 500 | 500 |  | 512 |  |
| CCC(N1CCN(C)CC1)C(O)(Cc1ccccc1)Cc1ccccc1 (stereo not drawn) [LVIII, 1-phenyl-2-benzyl-3-(4'-methyl-piperazino-1')-pentanol-2] | 50 | 128 (≈ 363 µM) | 50 | 256 (≈ 726 µM) | < 10 | 50 | 500 | 100 | 256 (≈ 726 µM) |  |  |
| CC(N1CCN(CCCl)CC1)C(O)(Cc1ccccc1)Cc1ccccc1 (stereo not drawn) [XLV, 1-phenyl-2-benzyl-3-[4'-(β-chloro-ethyl)-piperazino-1']-butanol-2] | 50 |  | 500 | > 1020 | 25 (≈ 64600 µM) | 50 | 500 | 100 | > 1020 |  |  |
| CC(N1CCN(CCCN2CCCCC2)CC1)C(O)(Cc1ccccc1)Cc1ccccc1 (stereo not drawn) [XIX, 1-phenyl-2-benzyl-3-[4'-(γ-piperidinopropyl)-piperazino-1']-butanol-2] | 500 | 32 (≈ 71.2 µM) | 5 | 16 (≈ 35.6 µM) | 100 (≈ 222000 µM) | 5 | 500 | 100 |  | 16 | 32 |
